Test results from patent US20170088584A1, “USE OF […] DRUGS FOR OS[…] AND BONE REGENERATION” (UNIVERSIDAD NACIONAL AUTONOMA DE MEXICO, priority 2015, published 2017).
Entries after “also recorded” stand apart in the source; their conditions may differ.

Experiments:
[1] = test system: Human Osteoblasts derived from alveolar bone; assay: MTT cytotoxicity and cell proliferation assay; type: cell-based; conditions: 5 μg/ml, 4 days, medium with 0.5% fetal bovine serum
Method: The cytotoxic effect and the effect on cell proliferation was assessed by means of the MTT colorimetric assay (tetrazolium) [3-(4,5-dimethylthazol-2-yl)-2,5-diphenyl tetrazoliumbromide], during 1, 2, 3 and 4 days. Human Osteoblasts derived from alveolar bone were planted at a density of 1×10^4 in plates of 96 wells. The cells were treated with the peptides (independently) for 4 days with concentrations of 1, 3 and 5 μg/ml of each of the peptides. The medium was replaced daily, and the peptides administered in the same way. The controls used were medium with fetal bovine serum at 10% (positive control) and medium with fetal bovine serum at 0.5% (negative control.) the peptides were administered at the various concentrations contained in the medium at 0.5%. At the end of each day of treatment, 10 μL of MTT (3-(4,5-dimethylthiazol-2-yl)-2,5-diphenyltetrazolium bromide) solution (5 mg/mL) was added to the wells and incubated for 3 hours. At the end the supernatant was removed and extraction was carried out by means of DMSO for 1 hour at 37° C. The optical density of the supernatant was read in a reader for ELISA at 570 nm. The optical density reflects the number of living cells present in the culture. […] The peptide […] (SEQ ID NO: 2) at a 5 μg/ml concentration promotes cell proliferation to a 92% with respect to the positive control (10% fetal bovine serum) (B).

[2] = test system: ovariectomized Wistar rats with osteoporosis; assay: bone microarchitecture by histology (Masson's trichrome) and μCT, ovariectomized osteoporotic rat model; type: in vivo, Wistar rats (Rattus norvegicus); conditions: 20-50 μg/kg i.p. daily 90 days; for μCT three-dimensional reconstruction of 5th lumbar vertebra / histology of femur epiphysis microarchitecture: 5 months after ovariectomy; for histology of femur epiphysis microarchitecture: Masson's trichrome; for histology of the body of the 5th lumbar vertebra: transverse and sagittal planes
Method: In FIGS. 5 and 6 histological sections of 5 μm thick and stained with Masson's Trichromic stain may be observed in which the microarchitecture of the epiphysis of the femur of the Wistar rats is analyzed in detail. Letter (A) of both figures corresponds to the group with no treatment which is the healthy control group. In the histological section stained with Masson's Trichromic stain, normal microarchitecture of the femoral epiphysis is observed with the cancellous bone and medullar spaces filled with bone marrow and bone occupying inter-medullar spaces. The epiphyseal plate and articular cartilage are also observed. […] Treatment with the vehicle lasted 90 days. […] These spaces have variable sizes. Articular cartilage and epiphyseal plate are also noted. […] Microphotography showing the microarchitecture of the femur epiphysis of Wistar rats. […] Articular cartilage and epiphyseal plate are also observed.
In FIGS. 7 and 8, microphotographs of histological sections of 5 μm thick of the 5th lumbar vertebra in the transverse and sagittal plane stained with Masson's Trichromic stain. Panel (A) of FIGS. 7 and 8 corresponds to the body of the 5th lumbar vertebra in the transverse (a) and sagittal (a′) planes of normal Wistar rats where cortical bone, bone trabeculate and spaces filled with bone marrow may be observed. Panel (B) of FIGS. 7 and 8 corresponds to the body of the 5th lumbar vertebra in the transverse (b) and sagittal (b′) planes of osteoporotic Wistar rats treated with physiological saline solution where cortical bone and bone trabeculate are observed with lesser width than the one of healthy Wistar rats. Medullar spaces are also observed and they are filled with fatty tissue with larger areas than those found in healthy controls.
(§1) We used 48 female rats of the Wistar strain, 3 months of age, with a weight of 250±20 gr. The animals were acclimated for 14 days at an ambient temperature of 22° C. with a photoperiod of 12 hours and relative humidity of 50%; food and water were ad libitum. The rats were sedated with acepromazine maleate (Relax 0.5 g/100 ml) at a dose of 20 μg/Kg of weight and as general anesthetic, tiletamine and zolazepam were used at a concentration of 25 mg/kg of weight.
Anesthetic maintenance was performed with constant flow of isoflurane. Once the rats were anesthetized we proceeded to perform the bilateral ovariectomy procedure for what the anesthetized rat was placed in lateral decubitus and shaved from the last rib forming a rectangle of approximately 4×3 cm. This area is disinfected with an electrolyzed super oxidant solution with neutral pH (Veteribac). Then a linear incision of approximately 2 cm up was performed with a scalpel to reach the muscle and expose the abdominal cavity. With extreme care, the cervix was located and identified. The cervix was ligated exactly on its middle portion with 6/0 polyglycolic acid sutures and subsequently the ovaries were eliminated with a scalpel. It was sutured by planes (abdominal muscles and skin) with 4/0 polyglycolic acid sutures and finally, the surgical area was cleaned with hydrogen peroxide. The rats were maintained in vivarium conditions during 5 months with 12 hours of light and 12 hours of darkness, at an average temperature of 22° C. with food and water ad libitum. […] Once this period concluded, 32 ovariectomized rats were divided into 4 groups of 8 rats each. […] The control group of osteoporotic rats […] was treated with physiological saline solution (pH 7.4) for 90 days. The healthy control group (16) rats received no treatment at all. Blood was obtained from all groups at the beginning and end of treatment (90 days). The 5th dorsal vertebra of the rats was analyzed by means of computed micro tomography (μCT) prior to euthanasia with CO2 on day 90 of treatment. The femur and 5th dorsal vertebrae were obtained, fixed in 10% paraformaldehyde and embedded in paraffin. […]

[3] = test system: critical-size calvarial defect in Wistar rats; assay: regeneration of critical-size calvarial defect with peptide in gelatin sponge scaffold; type: in vivo; conditions: 20-50 μg peptide per gelatin sponge (Gelfoam) disk, 9 mm defect, after 16 weeks
Excerpt: These peptides have been artificially synthesized and then combined with a three-dimensional scaffold made of gelatin (gelatin sponge), thus it was used for regeneration of critical size bone defects in an animal model: two groups of 14 male Wistar rats of approximately 250±20 grams of weight were used. Anesthesia of the rats was achieved through intraperitoneal injection of ketamine. The critical size defect was done by performing a 3 cm incision in the calvarial bone and then lifting a mucoperiostial flap. Subsequently, with a 9 mm trephine, a defect was created in the rat's calvarial bone. In the experimental group the formulation was introduced. It consisted of a 9 mm-diameter, porous, three-dimensional, gelatin-based (Gelfoam) disk containing the peptide at a concentration of 20-50 μg/disk. Previously, the dimensional scaffold (gelatin sponge) was incubated with a concentration of the corresponding peptide at 20-50 μg/disk of gelatin sponge and was vacuum dried. Control animals were treated only with a disk of gelatin sponge and a vehicle for re-suspension of the peptide (phosphate buffer pH 7.4) and another group remained without treatment. Blood supply is ensured at the surgical site. The operation site was sealed with Satin S-100, which consists primarily in gelatin. At the end of 16 weeks, the tissues were fixed with 10% formaldehyde and embedded in paraffin. […]

[4] = test system: ovariectomized Wistar rats with osteoporosis; assay: resistance to compression of the 5th lumbar vertebra, ovariectomized osteoporotic rat model; type: in vivo, Wistar rats (Rattus norvegicus); conditions: 20-50 μg/kg i.p. daily for 90 days, started 5 months after ovariectomy; end of treatment
Method: FIG. 12 corresponds to a graph showing the resistance to compression of the vertebral body of the 5th lumbar vertebra obtained from Wistar rats at the end of the 90-day experimental period, 5 months after ovariectomy. Resistance Tests were performed using an Inströn Universal Testing Machine (mod. 5567) in the body of the 5th lumbar vertebra compressed at a speed of 1 mm/min up to achieve sample fracture. The exerted force is expressed in N/mm^2. […].
as §1
Anesthetic maintenance was performed with constant flow of isoflurane. Once the rats were anesthetized we proceeded to perform the bilateral ovariectomy procedure for what the anesthetized rat was placed in lateral decubitus and shaved from the last rib forming a rectangle of approximately 4×3 cm. […] The 5th dorsal vertebra of the rats was analyzed by means of computed micro tomography (μCT) prior to euthanasia with CO2 on day 90 of treatment. […]

[5] = test system: ovariectomized Wistar rats with osteoporosis; assay: histology of liver, kidney, heart, lung, brain, spleen, muscle after 90 days of peptide administration; type: in vivo, Wistar rats (Rattus norvegicus); conditions: 20-50 μg/kg i.p. for 90 days
Method: The control tissues in Panel (A) correspond to: normal tissues: L=liver, K=kidney, H=heart, Lu=lung, B=brain, M=muscle, S=spleen. Panel B) tissues of Wistar rats with osteoporosis treated with the pharmaceutical formulations object of this invention; L=liver, K=kidney, H=heart, Lu=lung, B=brain, S=Spleen M=muscle. […] This means that the synthetic peptides are harmless drugs for osteoporosis treatment, producing no adverse or secondary reactions at cellular or tissue level.

[6] = biodistribution of peptide marked with pertechnetate (99mTc); type: in vivo, Wistar rats
Method: To determine the bio distribution of the peptides object of this invention, they were marked using technetium in the form of pertechnetate (TcO4−). In order to perform the marking, a working solution which contained: 40 ug of the peptides object of this invention, 50 ul of tartrate (2 mg/ml of acetate buffer pH5), 10 μl of SnCl2 (2 mg/ml 0.1 N HCl), 50 μl of gentisic acid (1 mg/ml) and 50 μl of 99m Tc—Na TCO4− (5 mCi) was prepared. Male Wistar rats of 250 g of weight which were at a temperature of 22° C. with a photoperiod of 12 hours and relative humidity at 50% were used. Food and water was ad libitum. To assess bio distribution, groups of three rats were formed and injected intraperitoneally with 40 μl of the marked peptide. They were sacrificed by an overdose of anesthetic at 30’, 1, 3, 6 and 24 hours. Blood samples from the heart, lung, liver, spleen, kidneys, stomach, small intestine, large intestine, muscle, bone, thyroid, brain and tooth were collected. These organs were weighed on an analytical balance and subsequently placed in a NaI(TI) solid scintillation counter to detect the activity of each one of the organs. With this procedure, the percentage of the injected dose per gram of tissue (% ID/g) was obtained.

Substance | cell proliferation with regard to the positive control (10% fetal bovine serum) [1] | μCT three-dimensional reconstruction of 5th lumbar vertebra [2] | histology of femur epiphysis microarchitecture [2] | histology of the body of the 5th lumbar vertebra [2] | filling of the critical-size calvarial defect with bone [3] | resistance to compression of 5th lumbar vertebra, difference compared to healthy control [4] | histological alteration of liver, kidney, heart, lung, brain, spleen, muscle [5] | percentage of injected dose per gram of tissue (% ID/g) ([6]; bone, 30′) | percentage of injected dose per gram of tissue (% ID/g) ([6]; bone, 1 hour) | percentage of injected dose per gram of tissue (% ID/g) ([6]; bone, 24 hours) | percentage of injected dose per gram of tissue (% ID/g) ([6]; kidney, 1 hour) | percentage of injected dose per gram of tissue (% ID/g) ([6]; kidney, 3 hours) | percentage of injected dose per gram of tissue (% ID/g) ([6]; kidney, 6 hours) | percentage of injected dose per gram of tissue (% ID/g) ([6]; kidney, 24 hours) | percentage of injected dose per gram of tissue (% ID/g) ([6]; large intestine, 30′ after i.p. injection) | percentage of injected dose per gram of tissue (% ID/g) ([6]; large intestine, 24 hours) | percentage of injected dose per gram of tissue (% ID/g) ([6]; liver, 1 hour) | percentage of injected dose per gram of tissue (% ID/g) ([6]; liver, 24 hours)
AVIFM | 82% | cancellous bone is present in almost the entire vertebral body | bone trabeculae forms a network structure similar to the microarchitecture of healthy control group; also recorded: full medullar spaces without evidence of osteoporotic spaces and with normal bone microarchitecture | cortical bone is observed similar to that of healthy Wistar rats | 100% | 2% | – | – | – | – | – | – | – | – | – | – | – | –
MGTSSTDSQQAQHRRCSTSN | 92% | cancellous bone is present in almost the entire vertebral body | bone trabeculae forms a network structure similar to the microarchitecture of healthy control group; also recorded: full medullar spaces without evidence of osteoporotic spaces and with normal bone microarchitecture | cortical bone is observed similar to that of healthy Wistar rats | 100% | 19% | no histological feature that indicates that peptide administration in physiological saline solution causes microscopic alteration in these tissues | 1.3% | 1.4% | 0.4% | 1.6% | 2.6% | 1.3% | 0.9% | 3.6% | 0.006% | 3.4% | 0.2%
